# Laboratory results as given in US8895585B2, “Nicotinamide derivative or salt thereof” (FUJIFILM Corporation, priority 2010, dated 2014).
# Target: T1, glutathione S-transferase (GST)-fused full-length human Syk protein (Homo sapiens, UniProt P43405)
# T1 construct: (GST)-fused full-length human Syk protein; GST (glutathione S-transferase); purchased Carna Biosciences
# Assay: Syk enzyme assay
# Assay type: biochemical
# Settings: Syk enzyme assay, Test Example 1; read-out: IC50 of Syk-inhibitory activity
# Procedure, shortened: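 GST-tagged full-length human Syk (baculovirus) preincubated with compound 15 min at room temperature (pH 7.0, 10 mM MgCl2), then reacted 40 min with 0.4 μM biotinylated peptide substrate and 27 μM ATP (final). Phosphorylation read by HTRF (615/665 nm) after EDTA stop; IC50 reported.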
row,IC50 [nM],Structure (SMILES)
1,10 to 50,"NC(=O)c1cc(F)c(N[C@@H]2CCCC[C@@H]2N)nc1Nc1cnc2c(NS(=O)(=O)c3cccnc3)cccc2c1 (relative stereo) [Example 41-8, 6-(cis-2-aminocyclohexylamino)-5-fluoro-2-((8-(pyridin-3-sulphonamide)quinolin-3-yl)amino)nicotinamide]"
2,< 10,"NC(=O)c1cc(F)c(N[C@@H]2CCCC[C@@H]2N)nc1Nc1cnc2c(NC(=O)c3ccccn3)cccc2c1 (relative stereo) [Example 41-10, 6-(cis-2-aminocyclohexylamino)-5-fluoro-2-((8-picolinamidequinolin-3-yl)amino)nicotinamide]"
3,< 10,"CC(C)(C)C(=O)Nc1cccc2cc(Nc3nc(N[C@@H]4CCCC[C@@H]4N)c(F)cc3C(N)=O)cnc12 (relative stereo) [Example 41-11, 6-(cis-2-aminocyclohexylamino)-5-fluoro-2-((8-pivalamidequinolin-3-yl)amino)nicotinamide]"
4,< 10,NC(=O)c1cc(F)c(N[C@@H]2CCCC[C@@H]2N)nc1Nc1cc(O)c2ncccc2c1 (relative stereo) [Example 042-000]
5,< 10,COc1cccc(Nc2nc(NC3CCCCC3N)c(F)cc2C(N)=O)c1 (stereo not drawn) [Example 002-006]
6,10 to 50,CN1CCN(c2ccc(Nc3nc(NC4CCCCC4N)c(F)cc3C(N)=O)cn2)CC1 (stereo not drawn) [Example 002-021]
7,10 to 50,Cc1cc(Nc2nc(NC3CCCCC3N)c(F)cc2C(N)=O)cc(C)n1 (stereo not drawn) [Example 002-022]
8,< 10,Cc1ncc(Nc2nc(NC3CCCCC3N)c(F)cc2C(N)=O)cc1-c1ccccc1 (stereo not drawn) [Example 002-023]
9,< 10,NC(=O)c1cc(F)c(NC2CCCCC2N)nc1Nc1cccc2c1cnn2CCN1CCCC1 (stereo not drawn) [Example 002-026]
10,< 10,NC(=O)c1cc(F)c(NC2CCCCC2N)nc1Nc1cccc2c1cnn2CCN1CCOCC1 (stereo not drawn) [Example 002-027]
11,< 10,NC(=O)c1cc(F)c(NC2CCCCC2N)nc1Nc1cccc2c1cnn2CC1CC1 (stereo not drawn) [Example 002-028]
12,10 to 50,NC(=O)c1cc(F)c(NC2CCCCC2N)nc1Nc1cccc2c1cnn2Cc1ccccc1 (stereo not drawn) [Example 002-029]
13,< 10,CCOCCOCCn1ncc2c(Nc3nc(NC4CCCCC4N)c(F)cc3C(N)=O)cccc21 (stereo not drawn) [Example 002-031]
14,< 10,NC(=O)c1cc(F)c(NC2CCCCC2N)nc1Nc1cccc2nn(Cc3ccccc3)cc12 (stereo not drawn) [Example 002-033]
15,< 10,COCCn1cc2c(Nc3nc(NC4CCCCC4N)c(F)cc3C(N)=O)cccc2n1 (stereo not drawn) [Example 002-034]
16,10 to 50,CCOCCOCCn1cc2c(Nc3nc(NC4CCCCC4N)c(F)cc3C(N)=O)cccc2n1 (stereo not drawn) [Example 002-035]
17,50 to 100,NC(=O)c1cc(F)c(NC2CCCCC2N)nc1Nc1ccc2c(cnn2Cc2ccccc2)c1 (stereo not drawn) [Example 002-036]
18,10 to 50,CC(C)c1cncc(Nc2nc(NC3CCCCC3N)c(F)cc2C(N)=O)c1 (stereo not drawn) [Example 002-039]
19,10 to 50,Cc1ncc(Nc2nc(NC3CCCCC3N)c(F)cc2C(N)=O)cc1N1CCCC1 (stereo not drawn) [Example 002-040]
20,10 to 50,COCCn1cc2ccc(Nc3nc(NC4CCCCC4N)c(F)cc3C(N)=O)cc2n1 (stereo not drawn) [Example 002-044]
21,10 to 50,CCOCCOCCn1cc2ccc(Nc3nc(NC4CCCCC4N)c(F)cc3C(N)=O)cc2n1 (stereo not drawn) [Example 002-045]
22,< 10,NC(=O)c1cc(F)c(NC2CCCCC2N)nc1Nc1ccc2cnn(CC3CC3)c2c1 (stereo not drawn) [Example 002-046]
23,10 to 50,NC(=O)c1cc(F)c(NC2CCCCC2N)nc1Nc1ccc2cnn(Cc3ccccc3)c2c1 (stereo not drawn) [Example 002-047]
24,10 to 50,CCOCCOCCn1ncc2ccc(Nc3nc(NC4CCCCC4N)c(F)cc3C(N)=O)cc21 (stereo not drawn) [Example 002-049]
25,10 to 50,NC(=O)c1cc(F)c(NC2CCCCC2N)nc1Nc1ccnc(C(F)(F)F)c1 (stereo not drawn) [Example 002-050]
26,< 10,NC(=O)c1cc(F)c(NC2CCCCC2N)nc1Nc1ccnc(-c2ccc[nH]2)c1 (stereo not drawn) [Example 002-051]
27,< 10,NC(=O)c1cc(F)c(NC2CCCCC2N)nc1Nc1ccnc(-c2ccccc2)c1 (stereo not drawn) [Example 002-052]
